Test results reported in PubChem BioAssay AID2060623 (Molecular Pharmacology Branch, DTP, NCI, 2025).
Values joined by “and” are separate entries in the source; they are usually repeats but may differ in a detail not shown here. Identical values can stand only once.

Test system: 227483-062-R1-J1-PDC complex spheroids with HUVEC/MSC, viability
Test: Anticancer human tumor 227483-062-R1-J1-PDC patient-derived pancreatic carcinoma cell line growth inhibition [CLK]
Conditions: for viability, T/C: stronger effect = lower value
In short: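 Patient-derived tumor cells grown as complex spheroids with HUVEC endothelial cells and mesenchymal stem cells, treated with drug combinations. Concentrations descend in half-log steps from near clinical Cmax, or from 10 microM if Cmax unknown.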

[1] = curve of first compound, second compound 0.0316 µM
[2] = curve of first compound, second compound 0.1 µM
[3] = curve of first compound, second compound 0.316 µM
[4] = curve of first compound, second compound 1 µM
[5] = curve of first compound, second compound 3.16 µM
[6] = curve of first compound, second compound 10 µM
[7] = second compound 0.0316 µM, first compound 0.0316 µM
[8] = second compound 0.0316 µM, first compound 0.1 µM
[9] = second compound 0.0316 µM, first compound 0.316 µM
[10] = second compound 0.0316 µM, first compound 1 µM
[11] = second compound 0.1 µM, first compound 0.0316 µM
[12] = second compound 0.1 µM, first compound 0.1 µM
[13] = second compound 0.1 µM, first compound 0.316 µM
[14] = second compound 0.1 µM, first compound 1 µM
[15] = second compound 0.316 µM, first compound 0.0316 µM
[16] = second compound 0.316 µM, first compound 0.1 µM
[17] = second compound 0.316 µM, first compound 0.316 µM
[18] = second compound 0.316 µM, first compound 1 µM
[19] = second compound 1 µM, first compound 0.0316 µM
[20] = second compound 1 µM, first compound 0.1 µM
[21] = second compound 1 µM, first compound 0.316 µM
[22] = second compound 1 µM, first compound 1 µM
[23] = second compound 3.16 µM, first compound 0.0316 µM
[24] = second compound 3.16 µM, first compound 0.1 µM
[25] = second compound 3.16 µM, first compound 0.316 µM
[26] = second compound 3.16 µM, first compound 1 µM
[27] = second compound 10 µM, first compound 0.0316 µM
[28] = second compound 10 µM, first compound 0.1 µM
[29] = second compound 10 µM, first compound 0.316 µM
[30] = second compound 10 µM, first compound 1 µM
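Note: spheroids exposed to compounds for seven days before readout.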
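Throughout, for viability, T/C: percent of DMSO vehicle control luminescence as 100% viability.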

COc1c(OCCCN2CCOCC2)ccc2c3n(c(=NC(=O)c4cnc(N)nc4)nc12)CCN3
viability, T/C (compound 0.00316 µM): 92.4% and 100%
viability, T/C (compound 0.01 µM): 90.7% and 83.8%
viability, T/C (compound 0.0316 µM): 85% and 72.6%
viability, T/C (compound 0.1 µM): 56.2% and 75.9%
viability, T/C (compound 0.316 µM): 55.8% and 59.5%
viability, T/C (compound 1 µM): 45.3% and 40.5%
IC50 (curve of compound): > 1000 nM and 575 nM

C=C(F)C(=O)N1CCN(c2nc(OCC3CCCN3C)nc3c2CCN(c2cccc4cccc(Cl)c24)C3)CC1CC#N (stereo unspecified) + CN1CCN(c2cc(C(=O)Nc3cc4cc(-c5cnn(C)c5)ccc4cn3)ccn2)CC1
IC50 [1]: 6190 nM
IC50 [2]: 4890 nM
IC50 [3]: < 31.6 nM
IC50 [4]: < 31.6 nM
IC50 [5]: < 31.6 nM
IC50 [6]: < 31.6 nM
viability, T/C [7]: 87.7%
viability, T/C [8]: 104%
viability, T/C [9]: 102%
viability, T/C [10]: 86.8%
viability, T/C (second compound 0.0316 µM, first compound 3.16 µM): 89.8%
viability, T/C (second compound 0.0316 µM, first compound 10 µM): 21.3%
viability, T/C [11]: 67.6%
viability, T/C [12]: 73.8%
viability, T/C [13]: 68%
viability, T/C [14]: 78.8%
viability, T/C (second compound 0.1 µM, first compound 3.16 µM): 78.2%
viability, T/C (second compound 0.1 µM, first compound 10 µM): 11.8%
viability, T/C [15]: 5.59%
viability, T/C [16]: 5.63%
viability, T/C [17]: 5.48%
viability, T/C [18]: 4.47%
viability, T/C (second compound 0.316 µM, first compound 3.16 µM): 5.37%
viability, T/C (second compound 0.316 µM, first compound 10 µM): 0.42%
viability, T/C [19]: 3.8%
viability, T/C [20]: 3.22%
viability, T/C [21]: 2.15%
viability, T/C [22]: 3.98%
viability, T/C (second compound 1 µM, first compound 3.16 µM): 0.88%
viability, T/C (second compound 1 µM, first compound 10 µM): 0.97%
viability, T/C [23]: 5.83%
viability, T/C [24]: 2.98%
viability, T/C [25]: 3.49%
viability, T/C [26]: 4.77%
viability, T/C (second compound 3.16 µM, first compound 3.16 µM): 1.3%
viability, T/C (second compound 3.16 µM, first compound 10 µM): 1.8%
viability, T/C [27]: 3.7%
viability, T/C [28]: 1.84%
viability, T/C [29]: 3.88%
viability, T/C [30]: 2.09%
viability, T/C (second compound 10 µM, first compound 3.16 µM): 1.69%
viability, T/C (second compound 10 µM, first compound 10 µM): 0.39%

CCc1c2c(nc3ccc(O)cc13)-c1cc3c(c(=O)n1C2)COC(=O)[C@]3(O)CC + CNC(=O)c1ccc(Nc2nc(OC3CCCC3)c3c(-c4ccc5nc(C)oc5c4)c[nH]c3n2)c(OC)c1
IC50 [1]: 205 nM
IC50 [2]: 176 nM
IC50 [3]: 64 nM
IC50 [4]: 11.4 nM
IC50 [5]: < 3.16 nM
IC50 [6]: < 3.16 nM
viability, T/C (second compound 0.0316 µM, first compound 0.00316 µM): 121%
viability, T/C (second compound 0.0316 µM, first compound 0.01 µM): 96.1%
viability, T/C [7]: 81.2%
viability, T/C [8]: 60.5%
viability, T/C [9]: 41.5%
viability, T/C [10]: 32.5%
viability, T/C (second compound 0.1 µM, first compound 0.00316 µM): 111%
viability, T/C (second compound 0.1 µM, first compound 0.01 µM): 97.1%
viability, T/C [11]: 69.3%
viability, T/C [12]: 64.4%
viability, T/C [13]: 42.1%
viability, T/C [14]: 19.8%
viability, T/C (second compound 0.316 µM, first compound 0.00316 µM): 65.2%
viability, T/C (second compound 0.316 µM, first compound 0.01 µM): 84.3%
viability, T/C [15]: 62.2%
viability, T/C [16]: 37.8%
viability, T/C [17]: 24.1%
viability, T/C [18]: 5.82%
viability, T/C (second compound 1 µM, first compound 0.00316 µM): 61.2%
viability, T/C (second compound 1 µM, first compound 0.01 µM): 54%
viability, T/C [19]: 34.1%
viability, T/C [20]: 19.4%
viability, T/C [21]: 10.4%
viability, T/C [22]: 1.96%
viability, T/C (second compound 3.16 µM, first compound 0.00316 µM): 44%
viability, T/C (second compound 3.16 µM, first compound 0.01 µM): 35.2%
viability, T/C [23]: 24.2%
viability, T/C [24]: 12.6%
viability, T/C [25]: 7.58%
viability, T/C [26]: 2.02%
viability, T/C (second compound 10 µM, first compound 0.00316 µM): 33.4%
viability, T/C (second compound 10 µM, first compound 0.01 µM): 32.4%
viability, T/C [27]: 17.1%
viability, T/C [28]: 11.4%
viability, T/C [29]: 6.34%
viability, T/C [30]: 2.19%
